Five molecules from patent publication US10584106B1, “Antifungal compounds derived from lavender oil” (King Abdulaziz University, priority 2018, dated 2020) can be followed below.

Assay in all cases: Antifungal activity by the well-cut diffusion method
Format in all cases: cell-based

Assay [1] relates to Microsporum gallinna. The conditions noted are these: for zone of inhibition at 1000 µg/mL: Microsporum, read-out: Inhibition Zone Dimeter (mm) M. gallina. As to the method:
(§1) Microsporum canis and Microsporum gallinna were obtained from King Fahad Hospital in Jeddah, Saudi Arabia
(§2) Antifungal Activity by the Well-Cut Diffusion Method:
Well-cut diffusion technique was used to evaluate the antifungal activities of the_tested compounds [El-Masry et al. “Synthesis and antimicrobial activity of some new benzimidazole derivatives” Molecules, 5 (2002), pp. 1429-1438]. The Sabaroud dexterous agar media was inoculated with 1 ml from tested spore suspension, then wells were cut from the plate using a sterile 10 mm cork-borer. About 0.5 and 1.0 ml of a chloroform solution containing 1.0 mg/ml of tested compounds were added into each well. All plates were incubated at 4° C. for 2 h to slow fungal growth. The plates were later incubated at 28° C. for a week [Mtolera and Semesi “Antimicrobial activity of extracts from six green algae from Tanzania.” Curr. Trends Mar. Bot. Res. East Afr. Reg. pp. 211-217 (1996)]. After incubation, the diameter of the growth inhibition zone was measured in mm [Attaie et al. Inhibition of growth of S. aureus during production of acidophilus yogurt J. Food Prot., 50 (1987), pp. 224-228], see Table 3.

Another assay deals with Microsporum canis. Particulars: for zone of inhibition at 500 µg/mL / zone of inhibition at 1000 µg/mL: Microsporum canis, read-out: Inhibition Zone Dimeter (mm) M. canis. As to the method: as §1, §2
Well-cut diffusion technique was used to evaluate the antifungal activities of the_tested compounds [El-Masry et al. “Synthesis and antimicrobial activity of some new benzimidazole derivatives” Molecules, 5 (2002), pp. 1429-1438]. The Sabaroud dexterous agar media was inoculated with 1 ml from tested spore suspension, then wells were cut from the plate using a sterile 10 mm cork-borer. […] All plates were incubated at 4° C. for 2 h to slow fungal growth. The plates were later incubated at 28° C. for a week [Mtolera and Semesi “Antimicrobial activity of extracts from six green algae from Tanzania.” Curr. Trends Mar. Bot. Res. East Afr. Reg. pp. 211-217 (1996)]. After incubation, the diameter of the growth inhibition zone was measured in mm [Attaie et al. Inhibition of growth of S. aureus during production of acidophilus yogurt J. Food Prot., 50 (1987), pp. 224-228], see Table 3.

Assay [2] has as its system Microsporum gallinna. Particulars: for zone of inhibition at 500 µg/mL: Microsporum, read-out: Inhibition Zone Dimeter (mm) M. gallina.
Setting [3] is: Concentration 1.0 mg/mL, 28° C. for a week, 10 mm wells.
Where [4] appears, read: Concentration 0.5 mg/mL, 28° C. for a week, 10 mm wells.

Like-named read-outs stand apart in the source and are kept apart here.

Regarding `C=CC(C)(CCC1OC1(C)C)OC(C)=O` (centres unmarked) [Epoxide 3, 6,7-Epoxy-3,7-dimethyl-1-octene-3-yl-acetate], the “Inhibition Zone Dimeter (mm) M. gallina” value was determined as 74.0 mm in the assay with Microsporum gallinna [1] (setting [3]) and 37.0 mm in the assay on Microsporum gallinna [2] (setting [4]). Further, the “inhibition of Microsporum gallinna grown on the solid media (in words)” value (shortened to “inhibition of Microsporum gallinna grown”) with Microsporum gallinna [1] is given as “strongly inhibited”. Also, the figures for the “Inhibition Zone Dimeter (mm) M. canis” value in the assay with Microsporum canis (setting [4]) and in the assay on Microsporum canis (setting [3]) were 60.0 mm and 85.0 mm, respectively. Also, the “inhibition of Microsporum canis grown on the solid media (in words)” value (“inhibition of Microsporum canis grown” below) in the assay with Microsporum canis is on record as “strongly inhibited”.
As for `CC(=O)OC(C)(CCC=C(C)C)C1CO1` (centres unmarked) [Epoxide 4, 1,2-Epoxy-3,7-dimethyl-6-octene-3-yl acetate], the zone of inhibition at 1000 µg/mL with Microsporum gallinna [1] and in the assay with Microsporum canis (setting [3]) was 85 mm in each case. Also, in the assay on Microsporum gallinna [1], the “inhibition of Microsporum gallinna grown” value was “strongly inhibited”. Further, the zone of inhibition at 500 µg/mL turned out to be 75 mm in the assay on Microsporum canis (setting [4]) and 65 mm with Microsporum gallinna [2]. Also, the “inhibition of Microsporum canis grown” value in the assay on Microsporum canis was “strongly inhibited”.
In the case of `C=CC(C)(CCC(OO)C(=C)C)OC(C)=O` (centres unmarked) [Hydroperoxide 5, 6-Hydroperoxy-3,7-dimethylocta-1,7-diene-3-yl acetate], the zone of inhibition at 1000 µg/mL with Microsporum gallinna [1] and in the assay with Microsporum canis (setting [3]) was 85 mm in each case. Besides, in the assay on Microsporum gallinna [1], the “inhibition of Microsporum gallinna grown” value is listed as “strongly inhibited”. Further, the “antimicrobial activity against M. canis, comparison among tested compounds” value with Microsporum canis (0.5 mg/ml concentration) is on record as “highest antimicrobial activity”. Besides, the zone of inhibition at 500 µg/mL in the assay on Microsporum canis (setting [4]) is 81 mm; with Microsporum gallinna [2], 80.5 mm. For the same molecule, in the assay on Microsporum canis, the “inhibition of Microsporum canis grown” value is “strongly inhibited”. For the same molecule, the “antimicrobial activity against M. gallinna, comparison among tested compounds” value in the assay on Microsporum gallinna [2] (0.5 mg/ml concentration) is reported as “highest antimicrobial activity”.
Take `C=CC(C)(CC=CC(C)(C)OO)OC(C)=O` (centres unmarked) [Hydroperoxide 6, 7-Hydroperoxy-3,7-dimethylocta-1,5-diene-3-yl acetate]: the zone of inhibition at 1000 µg/mL in the assay with Microsporum gallinna [1] and with Microsporum canis (setting [3]) was 85 mm throughout. In addition, in the assay on Microsporum gallinna [1], the “inhibition of Microsporum gallinna grown” value is reported as “strongly inhibited”. The zone of inhibition at 500 µg/mL in the assay on Microsporum canis (setting [4]) and in the assay with Microsporum gallinna [2] was 80 mm each time. In addition, the “inhibition of Microsporum canis grown” value in the assay with Microsporum canis is “strongly inhibited”.
`C=CC(C)(CCC=C(C)C)OC(C)=O` (centres unmarked) [Linalyl acetate, 3,7-Dimethyl-1,6-octadien-3-yl acetate, reference compound]: in the assay with Microsporum gallinna [1], the zone of inhibition at 1000 µg/mL is 85 mm and the “inhibition of Microsporum gallinna grown” value is “strongly inhibited”. Moreover, in the assay with Microsporum canis, the zone of inhibition at 500 µg/mL came to 80 mm, the zone of inhibition at 1000 µg/mL amounted to 85 mm and the “inhibition of Microsporum canis grown” value is given as “strongly inhibited”. Besides, the zone of inhibition at 500 µg/mL in the assay with Microsporum gallinna [2] amounted to 80 mm.
